From patent US20230069712A1, “COMPOUNDS FOR THE INDUCTION OF ANTIGEN-SPECIFIC IMMUNE TOLERANCE” (Anokion SA, priority 2019, published 2023)
No end group written: not given here.

Tested on: multiple sclerosis pathology (EAE disease)
Experiment: Mouse experimental autoimmune encephalomyelitis (EAE) model
Format: in vivo, mice
Conditions: intravenous injection on day 0, 3, and 6; adoptive transfer of MOG35-55-reactive T cells
From the text: Myelin oligodendrocyte glycoprotein (MOG) 30-60 is a fragment of an autoantigen that is associated with multiple sclerosis that is used herein as a non-limiting example of an immunogenic fragment of MOG. […] To induce multiple sclerosis pathology (EAE disease), recipient mice were adoptively transferred on day 0 with MOG35-55-reactive T cells obtained from a separate, previously-vaccinated donor mouse. On day 0, 3, and 6, mice received via intravenous injection of either MOG30-60 peptide, MOG-30-60 peptide chemically conjugated to pGal (LT-MOG-30-60), or saline; an additional control group received administrations of a monoclonal antibody that binds VLA-4 (integrin alpha 4 beta 1). Multiple sclerosis pathology was assessed and scored daily by a pharmacology expert blinded to group identities. […] It shall be appreciated that, according to additional embodiments disclosed herein, other immunogenic fragments of MOG are effective in inducing tolerance to MOG, and thus treatment of MS.

Q: Which “protection from multiple sclerosis pathology (EAE disease), daily score” value does the source give for “pGal-MOG30-60: MOG-30-60 peptide chemically conjugated to pGal (e.g., Polymer B) (KNATGMEVGWYRSPFSRVVHLYRNGKDQDAE; also: chemically conjugated to pGal polymer (e.g. Polymer B), site not given here; UniProt Q61885 58-88, looked up, fragment)” here?
A: Its value is “protected from multiple sclerosis pathology (EAE disease)”.

Q: Which “protection from multiple sclerosis pathology (EAE disease), daily score” value does the source give for “MOG30-60: Myelin oligodendrocyte glycoprotein (MOG) 30-60 peptide, SEQ ID NO: 30, administered alone (KNATGMEVGWYRSPFSRVVHLYRNGKDQDAE; MOG 30-60; listed as Homo sapiens)” here?
A: Its value is “not substantively protected from disease”.
